According to PubChem BioAssay AID2060897 (Molecular Pharmacology Branch, DTP, NCI, 2025):
Blank lines part the entries; values can stand above or below the compound they belong to.

Tested on: 966289-007-R4-J1-PDC complex spheroid viability
Experiment: Anticancer human tumor 966289-007-R4-J1-PDC patient-derived pancreatic adenocarcinoma cell line growth inhibition [RAS]
Details: for IC50: curve of first compound; for viability, T/C: stronger effect = lower value
Procedure, shortened: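 Multi-cell-type spheroids: tumor cells plus HUVEC endothelial cells and mesenchymal stem cells. RAS-pathway inhibitors were combined with targeted agents, each dosed in half-log steps down from clinical Cmax, or from 10 microM when Cmax was unknown.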

[1] = second compound 0.000949 µM, first compound 0.0316 µM
[2] = second compound 0.000949 µM, first compound 0.1 µM
[3] = second compound 0.000949 µM, first compound 0.316 µM
[4] = second compound 0.000949 µM, first compound 1 µM
[5] = second compound 0.003 µM, first compound 0.0316 µM
[6] = second compound 0.003 µM, first compound 0.1 µM
[7] = second compound 0.003 µM, first compound 0.316 µM
[8] = second compound 0.003 µM, first compound 1 µM
[9] = second compound 0.00949 µM, first compound 0.0316 µM
[10] = second compound 0.00949 µM, first compound 0.1 µM
[11] = second compound 0.00949 µM, first compound 0.316 µM
[12] = second compound 0.00949 µM, first compound 1 µM
[13] = second compound 0.03 µM, first compound 0.0316 µM
[14] = second compound 0.03 µM, first compound 0.1 µM
[15] = second compound 0.03 µM, first compound 0.316 µM
[16] = second compound 0.03 µM, first compound 1 µM
[17] = second compound 0.0949 µM, first compound 0.0316 µM
[18] = second compound 0.0949 µM, first compound 0.1 µM
[19] = second compound 0.0949 µM, first compound 0.316 µM
[20] = second compound 0.0949 µM, first compound 1 µM
[21] = second compound 0.3 µM, first compound 0.0316 µM
[22] = second compound 0.3 µM, first compound 0.1 µM
[23] = second compound 0.3 µM, first compound 0.316 µM
[24] = second compound 0.3 µM, first compound 1 µM
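Further: spheroids exposed to agents for one week before readout.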
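Wherever viability, T/C is given: percent viability relative to DMSO vehicle control wells as 100%.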

IC50 (second compound 0.000949 µM): < 31.6 nM
IC50 (second compound 0.003 µM): < 31.6 nM
IC50 (second compound 0.00949 µM): < 31.6 nM
IC50 (second compound 0.03 µM): < 31.6 nM
IC50 (second compound 0.0949 µM): < 31.6 nM
IC50 (second compound 0.3 µM): < 31.6 nM
Structure (SMILES): CC(=O)OC12COC1CC(O)C1(C)C(=O)C(O)C3=C(C)C(OC(=O)C(O)C(NC(=O)OC(C)(C)C)c4ccccc4)CC(O)(C(OC(=O)c4ccccc4)C21)C3(C)C (stereo unspecified) + CCn1c(-c2cc(N3CCN(C)CC3)cnc2C(C)OC)c2c3cc(ccc31)-c1csc(n1)CC(NC(=O)C1CC1C)C(=O)N1CCCC(N1)C(=O)OCC(C)(C)C2
viability, T/C [1]: 6.12%
viability, T/C [2]: 13.9%
viability, T/C [3]: 13.5%
viability, T/C [4]: 21.5%
viability, T/C (second compound 0.000949 µM, first compound 3.16 µM): 29.3%
viability, T/C (second compound 0.000949 µM, first compound 10 µM): 55%
viability, T/C [5]: 6.11%
viability, T/C [6]: 12.1%
viability, T/C [7]: 10.9%
viability, T/C [8]: 19.1%
viability, T/C (second compound 0.003 µM, first compound 3.16 µM): 35.8%
viability, T/C (second compound 0.003 µM, first compound 10 µM): 60.8%
viability, T/C [9]: 6.07%
viability, T/C [10]: 11.1%
viability, T/C [11]: 13.5%
viability, T/C [12]: 16.5%
viability, T/C (second compound 0.00949 µM, first compound 3.16 µM): 42.2%
viability, T/C (second compound 0.00949 µM, first compound 10 µM): 54.5%
viability, T/C [13]: 7.27%
viability, T/C [14]: 8.94%
viability, T/C [15]: 16.7%
viability, T/C [16]: 20.9%
viability, T/C (second compound 0.03 µM, first compound 3.16 µM): 40.2%
viability, T/C (second compound 0.03 µM, first compound 10 µM): 60.1%
viability, T/C [17]: 5.65%
viability, T/C [18]: 11.1%
viability, T/C [19]: 13.4%
viability, T/C [20]: 19.3%
viability, T/C (second compound 0.0949 µM, first compound 3.16 µM): 51.7%
viability, T/C (second compound 0.0949 µM, first compound 10 µM): 59.8%
viability, T/C [21]: 7.9%
viability, T/C [22]: 14.3%
viability, T/C [23]: 18.4%
viability, T/C [24]: 23.5%
viability, T/C (second compound 0.3 µM, first compound 3.16 µM): 41.7%
viability, T/C (second compound 0.3 µM, first compound 10 µM): 56%

IC50 (second compound 0.000949 µM): 1.67 nM
IC50 (second compound 0.003 µM): 1.57 nM
IC50 (second compound 0.00949 µM): 1.39 nM
IC50 (second compound 0.03 µM): 1.14 nM
IC50 (second compound 0.0949 µM): 1.15 nM
IC50 (second compound 0.3 µM): 1.21 nM
Structure (SMILES): CCc1c2c(nc3ccc(O)cc13)-c1cc3c(c(=O)n1C2)COC(=O)[C@]3(O)CC + CCn1c(-c2cc(N3CCN(C)CC3)cnc2C(C)OC)c2c3cc(ccc31)-c1csc(n1)CC(NC(=O)C1CC1C)C(=O)N1CCCC(N1)C(=O)OCC(C)(C)C2
viability, T/C (second compound 0.000949 µM, first compound 0.000949 µM): 95.5%
viability, T/C (second compound 0.000949 µM, first compound 0.003 µM): 2.7%
viability, T/C (second compound 0.000949 µM, first compound 0.00949 µM): 0.64%
viability, T/C (second compound 0.000949 µM, first compound 0.03 µM): 0.62%
viability, T/C (second compound 0.000949 µM, first compound 0.0949 µM): 0.49%
viability, T/C (second compound 0.000949 µM, first compound 0.3 µM): 0.57%
viability, T/C (second compound 0.003 µM, first compound 0.000949 µM): 86.2%
viability, T/C (second compound 0.003 µM, first compound 0.003 µM): 3.2%
viability, T/C (second compound 0.003 µM, first compound 0.00949 µM): 0.55%
viability, T/C (second compound 0.003 µM, first compound 0.03 µM): 0.6%
viability, T/C (second compound 0.003 µM, first compound 0.0949 µM): 1.32%
viability, T/C (second compound 0.003 µM, first compound 0.3 µM): 0.57%
viability, T/C (second compound 0.00949 µM, first compound 0.000949 µM): 71.3%
viability, T/C (second compound 0.00949 µM, first compound 0.003 µM): 6.94%
viability, T/C (second compound 0.00949 µM, first compound 0.00949 µM): 1.03%
viability, T/C (second compound 0.00949 µM, first compound 0.03 µM): 0.54%
viability, T/C (second compound 0.00949 µM, first compound 0.0949 µM): 0.73%
viability, T/C (second compound 0.00949 µM, first compound 0.3 µM): 0.75%
viability, T/C (second compound 0.03 µM, first compound 0.000949 µM): 58.1%
viability, T/C (second compound 0.03 µM, first compound 0.003 µM): 7.49%
viability, T/C (second compound 0.03 µM, first compound 0.00949 µM): 0.82%
viability, T/C (second compound 0.03 µM, first compound 0.03 µM): 1.66%
viability, T/C (second compound 0.03 µM, first compound 0.0949 µM): 0.53%
viability, T/C (second compound 0.03 µM, first compound 0.3 µM): 0.43%
viability, T/C (second compound 0.0949 µM, first compound 0.000949 µM): 58.9%
viability, T/C (second compound 0.0949 µM, first compound 0.003 µM): 4.98%
viability, T/C (second compound 0.0949 µM, first compound 0.00949 µM): 0.8%
viability, T/C (second compound 0.0949 µM, first compound 0.03 µM): 0.54%
viability, T/C (second compound 0.0949 µM, first compound 0.0949 µM): 0.7%
viability, T/C (second compound 0.0949 µM, first compound 0.3 µM): 0.4%
viability, T/C (second compound 0.3 µM, first compound 0.000949 µM): 62.1%
viability, T/C (second compound 0.3 µM, first compound 0.003 µM): 4.76%
viability, T/C (second compound 0.3 µM, first compound 0.00949 µM): 0.65%
viability, T/C (second compound 0.3 µM, first compound 0.03 µM): 0.58%
viability, T/C (second compound 0.3 µM, first compound 0.0949 µM): 0.62%
viability, T/C (second compound 0.3 µM, first compound 0.3 µM): 0.39%

IC50 (second compound 0.000949 µM): 6.04 nM
IC50 (second compound 0.003 µM): 6.3 nM
IC50 (second compound 0.00949 µM): 6.2 nM
IC50 (second compound 0.03 µM): 6.34 nM
IC50 (second compound 0.0949 µM): 6.96 nM
IC50 (second compound 0.3 µM): 12.5 nM
Structure (SMILES): Nc1ccn(C2OC(CO)C(O)C2(F)F)c(=O)n1 (stereo unspecified) + CCn1c(-c2cc(N3CCN(C)CC3)cnc2C(C)OC)c2c3cc(ccc31)-c1csc(n1)CC(NC(=O)C1CC1C)C(=O)N1CCCC(N1)C(=O)OCC(C)(C)C2
viability, T/C (second compound 0.000949 µM, first compound 0.00316 µM): 97.8%
viability, T/C (second compound 0.000949 µM, first compound 0.01 µM): 12.9%
viability, T/C [1]: 1.26%
viability, T/C [2]: 0.95%
viability, T/C [3]: 1.14%
viability, T/C [4]: 1.37%
viability, T/C (second compound 0.003 µM, first compound 0.00316 µM): 102%
viability, T/C (second compound 0.003 µM, first compound 0.01 µM): 14.8%
viability, T/C [5]: 1.26%
viability, T/C [6]: 1.21%
viability, T/C [7]: 1.3%
viability, T/C [8]: 1.36%
viability, T/C (second compound 0.00949 µM, first compound 0.00316 µM): 101%
viability, T/C (second compound 0.00949 µM, first compound 0.01 µM): 13.7%
viability, T/C [9]: 1.25%
viability, T/C [10]: 1.19%
viability, T/C [11]: 1.09%
viability, T/C [12]: 1.04%
viability, T/C (second compound 0.03 µM, first compound 0.00316 µM): 97%
viability, T/C (second compound 0.03 µM, first compound 0.01 µM): 19.3%
viability, T/C [13]: 1.26%
viability, T/C [14]: 1.2%
viability, T/C [15]: 1.06%
viability, T/C [16]: 1.12%
viability, T/C (second compound 0.0949 µM, first compound 0.00316 µM): 97.2%
viability, T/C (second compound 0.0949 µM, first compound 0.01 µM): 28.2%
viability, T/C [17]: 1.31%
viability, T/C [18]: 1.32%
viability, T/C [19]: 1.4%
viability, T/C [20]: 1.29%
viability, T/C (second compound 0.3 µM, first compound 0.00316 µM): 97.6%
viability, T/C (second compound 0.3 µM, first compound 0.01 µM): 61.5%
viability, T/C [21]: 2.02%
viability, T/C [22]: 1.27%
viability, T/C [23]: 1.51%
viability, T/C [24]: 1.21%
